Data from patent US7229825B2, “Double-transfected cell line useful for the identification of transport inhibitors” (Deutches Krebsforschungszentrum Stiftung des Offentlichen …, priority 2001, dated 2007).

Columns and labels:
MDCK-MRP2/OATP8 cells = test: Radio-HPLC analysis of [3H]BSP after transport by MDCK-MRP2/OATP8 cells; type: in vitro ADME; settings: 1 μM [3H]BSP basolateral, 30 min, acivicin 5 mM
Description: HPLC Analysis of [^3H]BSP. MDCK-MRP2/OATP8 cells grown on Transwell membrane inserts were incubated with 1 μM [^3H]BSP in the basolateral compartment for 30 min at 37° C. after a pre-incubation with 5 mM acivicin, an inhibitor of g-glutamyltransferase (Allen et al. 1980), in both compartments for 30 min at 37° C. The radioactivity in the apical compartment and in the cell lysate was analyzed by HPLC. Reversed-phase HPLC analyses on a C18 Hypersil column ([…] particles; Shandon, Runcorn, UK) were performed as described (Cui et al. 2001) using a linear gradient elution from 100% buffer A (45% methanol/55% water containing […] tetrabutylammonium hydroxide at pH 6.0) to 100% buffer B (90% methanol/10% water containing 2 mM tetrabutylammonium hydroxide at pH 6.0) at a flow rate of 1 ml/min. [^3H]BSP-SG was synthesized for the HPLC analyses by incubating 1 mM GSH, 0.4 mM [^3H]BSP (1 μCi), and 5 mM acivicin with 350 μl mouse liver cytosol in a final volume of 500 μl for 1 h at 37° C. After deproteinization with 3 volume of methanol 200 μl supernatant was analyzed by HPLC as described above.

[1] = system: OATP2 and MRP2 (MDCK-OATP2/MRP2 cells); test: Transcellular transport of BSP by MDCK-OATP2/MRP2 cells; type: cell-based, human; settings: 1 μM [3H]BSP basolateral, 30 min, 37° C.; MDCK-OATP2/MRP2 vs MDCK-Co and MDCK-OATP2
Text: FIG. 13: Transcellular transport of BSP by MDCK-OATP2/MRP2 cells.
Proteins were separated by SDS-PAGE (7.5% gels).

[2] = system: human OATP8 and MRP2 (MDCK-MRP2/OATP8 cells)
Description: For transport assays MDCKII cells were grown on Transwell membrane inserts (24 mm diameter, 0.4 μm pore size, Corning Costar) at confluency for 3 days and induced with 10 mM sodium butyrate for 24 h. […] After the time periods indicated, the radioactivity in the opposite compartments was measured. The intracellular accumulation of the radioactivity was determined by lysing the cells with 2 ml 0.2% SDS in water and measuring the radioactivity in cell lysates.
To study the transcellular transport of Fluo-3, cells were incubated with 2 μM Fluo-3 in the basolateral compartments at 37° C. for 30 min.
To study the transcellular transport of rifampicin, cells were incubated with 50 μM rifampicin in the basolateral compartments at 37° C. for 30 min. To determine the concentration of rifampicin in the apical compartments its absorption at 475 nm was measured with a spectrophotometer (Ultrospec III, Amersham-Pharmacia, Freiburg, Germany). A calibration curve for the calculation of the concentrations of rifampicin was determined in the concentration range between 1 and 50 μM.

human MRP2 = human MRP2 (Homo sapiens, UniProt Q92887); test: ATP-dependent transport of [3H]BSP into inside-out membrane vesicles from HEK-MRP2 cells; type: biochemical
human MRP2, sequence (Q92887 whole entry): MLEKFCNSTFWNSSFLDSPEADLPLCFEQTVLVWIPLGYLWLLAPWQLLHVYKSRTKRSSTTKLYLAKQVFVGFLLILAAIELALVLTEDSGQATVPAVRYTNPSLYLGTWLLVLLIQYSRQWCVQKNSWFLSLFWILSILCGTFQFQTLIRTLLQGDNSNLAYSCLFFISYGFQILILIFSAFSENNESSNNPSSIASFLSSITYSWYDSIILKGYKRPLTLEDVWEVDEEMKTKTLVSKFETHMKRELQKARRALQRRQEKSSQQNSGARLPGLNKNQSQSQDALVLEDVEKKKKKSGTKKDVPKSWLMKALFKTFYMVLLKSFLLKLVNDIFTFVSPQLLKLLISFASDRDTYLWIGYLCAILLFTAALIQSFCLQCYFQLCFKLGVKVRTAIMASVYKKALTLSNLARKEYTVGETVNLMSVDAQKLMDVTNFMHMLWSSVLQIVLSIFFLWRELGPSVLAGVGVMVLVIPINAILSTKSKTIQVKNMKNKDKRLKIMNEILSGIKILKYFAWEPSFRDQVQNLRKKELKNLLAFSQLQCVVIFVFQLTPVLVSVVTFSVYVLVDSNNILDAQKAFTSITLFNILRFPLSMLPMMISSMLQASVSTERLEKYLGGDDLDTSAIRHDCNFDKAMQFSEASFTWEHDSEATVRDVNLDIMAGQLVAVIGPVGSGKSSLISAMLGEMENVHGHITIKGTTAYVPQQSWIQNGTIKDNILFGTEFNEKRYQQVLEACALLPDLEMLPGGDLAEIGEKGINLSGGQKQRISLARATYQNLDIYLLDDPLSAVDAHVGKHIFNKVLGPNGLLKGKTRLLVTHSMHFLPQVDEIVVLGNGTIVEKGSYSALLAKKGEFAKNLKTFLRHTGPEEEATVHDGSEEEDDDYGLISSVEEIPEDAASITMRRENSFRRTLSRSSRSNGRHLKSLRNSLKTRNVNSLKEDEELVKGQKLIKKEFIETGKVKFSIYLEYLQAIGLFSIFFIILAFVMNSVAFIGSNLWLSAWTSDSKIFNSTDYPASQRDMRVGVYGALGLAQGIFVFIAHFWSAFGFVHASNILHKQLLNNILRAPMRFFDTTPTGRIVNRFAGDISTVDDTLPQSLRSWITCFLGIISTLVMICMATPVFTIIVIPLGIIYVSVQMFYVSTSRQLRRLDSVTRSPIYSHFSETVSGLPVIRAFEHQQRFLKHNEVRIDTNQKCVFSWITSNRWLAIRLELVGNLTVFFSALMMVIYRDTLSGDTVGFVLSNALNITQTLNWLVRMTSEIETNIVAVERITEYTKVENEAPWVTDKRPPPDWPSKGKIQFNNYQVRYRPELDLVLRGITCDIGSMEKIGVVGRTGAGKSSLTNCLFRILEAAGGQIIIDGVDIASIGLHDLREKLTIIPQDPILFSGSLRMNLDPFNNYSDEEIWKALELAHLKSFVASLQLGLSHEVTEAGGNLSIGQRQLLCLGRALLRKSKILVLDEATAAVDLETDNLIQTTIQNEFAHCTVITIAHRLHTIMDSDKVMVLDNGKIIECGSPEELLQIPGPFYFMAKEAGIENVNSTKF
Description: Vesicle Transport Studies. Transport of [^3H]BSP into membrane vesicles was measured by the rapid filtration method (Keppler et al. 1998). Briefly, membrane vesicles (30 μg protein) were incubated in the presence of 4 mM ATP, 10 mM creatine phosphate, 100 μg/ml creatine kinase, and [^3H]BSP in an incubation buffer (250 mM sucrose, 10 mM Tris/HCl, pH 7.4) in a final volume of 55 μl at 37° C. Aliquots (15 μl) were taken at the indicated time points, diluted in 1 ml ice-cold incubation buffer, and immediately filtered through presoaked nitrocellulose membrane (0.2 μm pore size, Schleicher & Schüll, Dassel, Germany). Filters were rinsed twice with 5 ml of incubation buffer, dissolved in liquid scintillation fluid, and counted for radioactivity. In control experiments, ATP was replaced by an equal concentration of 5′-AMP. ATP-dependent transport was calculated by subtracting values obtained in the presence of 5′-AMP from those obtained in the presence of ATP.

[3] = target: T1, human OATP8 (MDCK-OATP8 cells) (Homo sapiens, UniProt Q9NPD5); test: [3H]BSP accumulation and efflux in MDCK-OATP8 cells on Transwell membrane inserts; type: cell-based; design: expressed in transfected cells
T1 sequence (Q9NPD5 1-702): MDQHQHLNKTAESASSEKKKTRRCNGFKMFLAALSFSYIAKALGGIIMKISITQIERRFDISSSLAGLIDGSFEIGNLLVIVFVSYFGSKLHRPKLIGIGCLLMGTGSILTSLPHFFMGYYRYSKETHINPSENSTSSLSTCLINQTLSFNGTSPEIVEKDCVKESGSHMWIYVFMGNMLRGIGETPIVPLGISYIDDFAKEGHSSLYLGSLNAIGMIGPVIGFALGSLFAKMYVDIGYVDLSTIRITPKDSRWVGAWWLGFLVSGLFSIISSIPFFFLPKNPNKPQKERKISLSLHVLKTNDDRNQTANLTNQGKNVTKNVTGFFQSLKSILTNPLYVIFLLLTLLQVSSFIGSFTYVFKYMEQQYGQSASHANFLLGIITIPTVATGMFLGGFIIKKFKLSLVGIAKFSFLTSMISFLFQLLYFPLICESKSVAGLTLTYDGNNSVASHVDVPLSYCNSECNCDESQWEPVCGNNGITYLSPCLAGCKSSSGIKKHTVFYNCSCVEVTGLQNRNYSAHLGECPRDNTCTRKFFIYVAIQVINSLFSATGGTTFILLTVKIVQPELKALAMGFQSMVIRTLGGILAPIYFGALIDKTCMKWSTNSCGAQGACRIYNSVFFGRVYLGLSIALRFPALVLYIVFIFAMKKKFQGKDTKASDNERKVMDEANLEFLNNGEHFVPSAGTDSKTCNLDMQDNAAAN

For O=C1OC(c2ccc(O)c(S(=O)(=O)O)c2)(c2ccc(O)c(S(=O)(=O)O)c2)c2c(Br)c(Br)c(Br)c(Br)c21 [BSP, sulfobromophthalein], the “radioactivity in the apical compartment and in the cells with the retention time of unconjugated [3H]BSP” value (MDCK-MRP2/OATP8 cells) was greater than 98%, the “rate of transcellular transport of BSP” value [1] was “significantly higher” and the “intracellular [3H]BSP level remaining after 30 min efflux” value [2] was “significantly lower”. For the same compound, the “transcellular transport (basolateral to apical)” value [2] was “marked transcellular transport”, the “rate of transfer from the basolateral to the apical compartment, double-transfected versus single-transfected cells” value ([2]; human, pH 7.3) was “at least 6 times” and the “transport of [3H]BSP into membrane vesicles from HEK-MRP2 cells” value (human MRP2; 1 μM, ATP vs 5'-AMP) was “transported ATP-dependently”. The “accumulation of [3H]BSP in membrane vesicles” value (human MRP2; HEK-MRP2 vs control-transfected HEK-Co vesicles) was “significantly higher”, the “intracellular accumulation of [3H]BSP” value ([3]; 1 μM basolateral, MDCK-OATP8 or MDCK-MRP2/OATP8 vs MDCK-Co and MDCK-MRP2 cells) was “significantly higher” and the “efflux of [3H]BSP, route of release” value ([3]; MDCK-OATP8 cells loaded with 1 μM for 30 min, then 30 min efflux) was “mainly across the basolateral membrane”.
